Measured values as given in patent publication US20050187244A1 (Entire Interest., priority 2004, published 2005).

Legend:
[1] = Solid form transformation on drying; assay type: physicochemical; settings: drying under heating, preferably 50 C. overnight under vacuum, about 10-100 mm Hg; monosodium salt
Protocol: The various forms are related in that drying of one form may lead to another form. Drying may be carried out under ambient or reduced pressure under heating. The temperature during heating is preferably about 40° C. to about 60° C., more preferably about 40° C. to about 50° C. The drying for a few days, such as about two days may be sufficient for transformation. In a preferred embodiment, drying is performed at 50C. overnight under vacuum, about 10-100 mm Hg.
Some solutions were stirred at room temperature; others were heated to the indicated temperature. The precipitate was recovered by filtration and washed with the solvent (5 mL) to obtain a wet sample. A portion of the wet sample was dried overnight in a vacuum at 50° C. at 10-50 mm Hg to obtain a dry sample. The wet and dry samples were analyzed by X-ray diffraction.

[2] = Solid form transformation while stirred in organic solvent (slurry); assay type: physicochemical; settings: stirred in an organic solvent for more than about 2 days, e.g. dichloromethane and optionally heptane
Excerpt: The various forms are related in that one form may transform to another while in an organic solvent, such as a slurry resulting from crystallization. […] Such transformation occurs for example in a reaction mixture containing dichloromethane and optionally a C5 to C12 hydrocarbon such as heptane.

[3] = powder; cited from earlier work

| SMILES | form obtained on drying [1] | form transformation in organic solvent [2] | hygroscopicity [3] |
| --- | --- | --- | --- |
| CC(C)(O)c1ccccc1CC[C@@H](SCC1(CC(=O)[O-])CC1)c1cccc(/C=C/c2ccc3ccc(Cl)cc3n2)c1.[Na+] [Form B2, [R-(E)]-1-[[[1-[3-[2-(7-chloro-2-quinolinyl)ethenyl]phenyl]-3-[2-(1-hydroxy-1-methylethyl)phenyl]propyl]thio]methyl]cyclopropaneacetic acid, monosodium salt] | Form B1 or form C | – | – |
| CC(C)(O)c1ccccc1CC[C@@H](SCC1(CC(=O)[O-])CC1)c1cccc(/C=C/c2ccc3ccc(Cl)cc3n2)c1.[Na+] [Form B1, [R-(E)]-1-[[[1-[3-[2-(7-chloro-2-quinolinyl)ethenyl]phenyl]-3-[2-(1-hydroxy-1-methylethyl)phenyl]propyl]thio]methyl]cyclopropaneacetic acid, monosodium salt] | Form C | transforms to Form C | – |
| CC(C)(O)c1ccccc1CC[C@@H](SCC1(CC(=O)[O-])CC1)c1cccc(/C=C/c2ccc3ccc(Cl)cc3n2)c1.[Na+] [Montelukast sodium, [R-(E)]-1-[[[1-[3-[2-(7-chloro-2-quinolinyl)ethenyl]phenyl]-3-[2-(1-hydroxy-1-methylethyl)phenyl]propyl]thio]methyl]cyclopropaneacetic acid, monosodium salt] | – | – | hygroscopic |
